Results reported in ChEMBL document CHEMBL1128651, “Preparation and in vitro activity of aryl ether derivatives of the FK-506 related immunosuppressive macrolides ascomycin and L-683,742” (Bioorg Med Chem Lett, 1995).

The compounds below were run on Murine T-cell line (assay: Inhibition of proliferation of PMA and Ionomycin stimulated murine T cells). Conditions: Mus musculus.
Type: functional, cell-based

Row | Structure (SMILES) | IC50 [nM]
1 | CC[C@@H]1/C=C(\C)C[C@H](C)C[C@H](OC)[C@H]2O[C@@](O)(C(=O)C(=O)N3CCCC[C@H]3C(=O)O[C@H](/C(C)=C/[C@@H]3CC[C@@H](Oc4ccc(O)cc4)[C@H](O)C3)[C@H](C)[C@@H](O)CC1=O)[C@H](C)C[C@@H]2OC | 1.6
2 | CC[C@@H]1/C=C(\C)C[C@H](C)C[C@H](OC)[C@H]2O[C@@](O)(C(=O)C(=O)N3CCCC[C@H]3C(=O)O[C@H](/C(C)=C/[C@@H]3CC[C@@H](Oc4ccc(SC)cc4)[C@H](OC)C3)[C@H](C)[C@@H](O)CC1=O)[C@H](C)C[C@@H]2OC | 2.6
3 | CC[C@@H]1/C=C(\C)C[C@H](C)C[C@H](OC)[C@H]2O[C@@](O)(C(=O)C(=O)N3CCCC[C@H]3C(=O)O[C@H](/C(C)=C/[C@@H]3CC[C@@H](Oc4ccc(N(C)C)cc4)[C@H](OC)C3)[C@H](C)[C@@H](O)CC1=O)[C@H](C)C[C@@H]2OC | 1.1
4 | CC[C@@H]1/C=C(\C)C[C@H](C)C[C@H](OC)[C@H]2O[C@@](O)(C(=O)C(=O)N3CCCC[C@H]3C(=O)O[C@H](/C(C)=C/[C@@H]3CC[C@@H](O)[C@H](O)C3)[C@H](C)[C@@H](O)CC1=O)[C@H](C)C[C@@H]2OC | 1.63
5 | CC[C@@H]1/C=C(\C)C[C@H](C)C[C@H](OC)[C@H]2O[C@@](O)(C(=O)C(=O)N3CCCC[C@H]3C(=O)O[C@H](/C(C)=C/[C@@H]3CC[C@@H](Oc4ccc(C(F)(F)F)cc4)[C@H](OC)C3)[C@H](C)[C@@H](O)CC1=O)[C@H](C)C[C@@H]2OC | 35.8
6 | CC[C@@H]1/C=C(\C)C[C@H](C)C[C@H](OC)[C@H]2O[C@@](O)(C(=O)C(=O)N3CCCC[C@H]3C(=O)O[C@H](/C(C)=C/[C@@H]3CC[C@@H](Oc4cccc(C)c4)[C@H](OC)C3)[C@H](C)[C@@H](O)CC1=O)[C@H](C)C[C@@H]2OC | 5.4
7 | CC[C@@H]1/C=C(\C)C[C@H](C)C[C@H](OC)[C@H]2O[C@@](O)(C(=O)C(=O)N3CCCC[C@H]3C(=O)O[C@H](/C(C)=C/[C@@H]3CC[C@@H](Oc4ccc(OC)cc4)[C@H](OC)C3)[C@H](C)[C@@H](O)CC1=O)[C@H](C)C[C@@H]2OC | 1.4
8 | CC[C@@H]1/C=C(\C)C[C@H](C)C[C@H](OC)[C@H]2O[C@@](O)(C(=O)C(=O)N3CCCC[C@H]3C(=O)O[C@H](/C(C)=C/[C@@H]3CC[C@@H](O)[C@H](Oc4ccc(C)cc4)C3)[C@H](C)[C@@H](O)CC1=O)[C@H](C)C[C@@H]2OC | 2.6
9 | CC[C@@H]1/C=C(\C)C[C@H](C)C[C@H](OC)[C@H]2O[C@@](O)(C(=O)C(=O)N3CCCC[C@H]3C(=O)O[C@H](/C(C)=C/[C@@H]3CC[C@@H](Oc4ccc(O)cc4)[C@H](OC)C3)[C@H](C)[C@@H](O)CC1=O)[C@H](C)C[C@@H]2OC | 0.8
10 | CC[C@@H]1/C=C(\C)C[C@H](C)C[C@H](OC)[C@H]2O[C@@](O)(C(=O)C(=O)N3CCCC[C@H]3C(=O)O[C@H](/C(C)=C/[C@@H]3CC[C@@H](Oc4cccc(OC)c4)[C@H](OC)C3)[C@H](C)[C@@H](O)CC1=O)[C@H](C)C[C@@H]2OC | 3.4
11 | CC[C@@H]1/C=C(\C)C[C@H](C)C[C@H](OC)[C@H]2O[C@@](O)(C(=O)C(=O)N3CCCC[C@H]3C(=O)O[C@H](/C(C)=C/[C@@H]3CC[C@@H](Oc4ccc(C)cc4)[C@H](OC)C3)[C@H](C)[C@@H](O)CC1=O)[C@H](C)C[C@@H]2OC | 2.7
12 | CC[C@@H]1/C=C(\C)C[C@H](C)C[C@H](OC)[C@H]2O[C@@](O)(C(=O)C(=O)N3CCCC[C@H]3C(=O)O[C@H](/C(C)=C/[C@@H]3CC[C@@H](Oc4cc(C(F)(F)F)cc(C(F)(F)F)c4)[C@H](OC)C3)[C@H](C)[C@@H](O)CC1=O)[C@H](C)C[C@@H]2OC | 607
13 | CC[C@@H]1/C=C(\C)C[C@H](C)C[C@H](OC)[C@H]2O[C@@](O)(C(=O)C(=O)N3CCCC[C@H]3C(=O)O[C@H](/C(C)=C/[C@@H]3CC[C@@H](Oc4ccc(C)cc4)[C@H](O)C3)[C@H](C)[C@@H](O)CC1=O)[C@H](C)C[C@@H]2OC | 6
14 | CC[C@@H]1/C=C(\C)C[C@H](C)C[C@H](OC)[C@H]2O[C@@](O)(C(=O)C(=O)N3CCCC[C@H]3C(=O)O[C@H](/C(C)=C/[C@@H]3CC[C@@H](O)[C@H](Oc4ccccc4)C3)[C@H](C)[C@@H](O)CC1=O)[C@H](C)C[C@@H]2OC | 3.2
15 | CC[C@@H]1/C=C(\C)C[C@H](C)C[C@H](OC)[C@H]2O[C@@](O)(C(=O)C(=O)N3CCCC[C@H]3C(=O)O[C@H](/C(C)=C/[C@@H]3CC[C@@H](O)[C@H](Oc4ccc(OC)cc4)C3)[C@H](C)[C@@H](O)CC1=O)[C@H](C)C[C@@H]2OC | 0.9
16 | CC[C@@H]1/C=C(\C)C[C@H](C)C[C@H](OC)[C@H]2O[C@@](O)(C(=O)C(=O)N3CCCC[C@H]3C(=O)O[C@H](/C(C)=C/[C@@H]3CC[C@@H](Oc4ccc(F)cc4)[C@H](OC)C3)[C@H](C)[C@@H](O)CC1=O)[C@H](C)C[C@@H]2OC | 3.4
17 | CC[C@@H]1/C=C(\C)C[C@H](C)C[C@H](OC)[C@H]2O[C@@](O)(C(=O)C(=O)N3CCCC[C@H]3C(=O)O[C@H](/C(C)=C/[C@@H]3CC[C@@H](O)[C@H](Oc4ccc(O)cc4)C3)[C@H](C)[C@@H](O)CC1=O)[C@H](C)C[C@@H]2OC | 0.9
18 | CC[C@@H]1/C=C(\C)C[C@H](C)C[C@H](OC)[C@H]2O[C@@](O)(C(=O)C(=O)N3CCCC[C@H]3C(=O)O[C@H](/C(C)=C/[C@@H]3CC[C@@H](Oc4ccccc4)[C@H](O)C3)[C@H](C)[C@@H](O)CC1=O)[C@H](C)C[C@@H]2OC | 5.2
19 | CC[C@@H]1/C=C(\C)C[C@H](C)C[C@H](OC)[C@H]2O[C@@](O)(C(=O)C(=O)N3CCCC[C@H]3C(=O)O[C@H](/C(C)=C/[C@@H]3CC[C@@H](Oc4ccc(OC)cc4)[C@H](O)C3)[C@H](C)[C@@H](O)CC1=O)[C@H](C)C[C@@H]2OC | 1.2
20 | CC[C@@H]1/C=C(\C)C[C@H](C)C[C@H](OC)[C@H]2O[C@@](O)(C(=O)C(=O)N3CCCC[C@H]3C(=O)O[C@H](/C(C)=C/[C@@H]3CC[C@@H](Oc4ccccc4)[C@H](OC)C3)[C@H](C)[C@@H](O)CC1=O)[C@H](C)C[C@@H]2OC | 5.4
21 | CC[C@@H]1/C=C(\C)C[C@H](C)C[C@H](OC)[C@H]2O[C@@](O)(C(=O)C(=O)N3CCCC[C@H]3C(=O)O[C@H](/C(C)=C/[C@@H]3CC[C@@H](Oc4cccc(O)c4)[C@H](OC)C3)[C@H](C)[C@@H](O)CC1=O)[C@H](C)C[C@@H]2OC | 1.7
22 | CC[C@@H]1/C=C(\C)C[C@H](C)C[C@H](OC)[C@H]2O[C@@](O)(C(=O)C(=O)N3CCCC[C@H]3C(=O)O[C@H](/C(C)=C/[C@@H]3CC[C@@H](O)[C@H](OC)C3)[C@H](C)[C@@H](O)CC1=O)[C@H](C)C[C@@H]2OC [ASCOMYCIN] | 0.69
